The results in this text go back to US20200039930A1, “PROLINE AMIDE COMPOUNDS AND THEIR AZETIDINE ANALOGUES CARRYING A SPECIFICALLY SUBSTITUTED BENZYL RADICAL” (AbbVie Deutschland GmbH & Co. KG, priority 2017, published 2020).

The nature of data set [1]: Metabolic stability: unbound intrinsic clearance in liver microsomes. To be noted: rat; liver microsomes 0.25 mg protein/mL, 0.5 μM compound, pH 7.4, 37° C.; Cl int unbound=Cl int/fu mic; compounds used as acid addition salts; read-out: Cl int, mic unb. (r) (unbound intrinsic clearance). The format is in vitro ADME. How it is done: Samples of the tested compounds (0.5 μM) were preincubated together with rat liver microsomes (0.25 mg of microsomal protein/mL) in 0.05 M potassium phosphate buffer of pH 7.4 in microtiter plates at 37° C. for 5 minutes. The reaction was started by adding NADPH (1.0 mM). After 0, 5, 10, 15, 20 and 30 minutes, an aliquot was removed, the reaction was cooled and stopped by adding twice the amount of quench solution consisting of acetonitrile/methanol 1:1, and containing […] carbutamide as internal standard. The samples were frozen until analyzed. The remaining concentration of undegraded test substance was determined by liquid chromatography-tandem mass spectrometry (LC-MS/MS). The half-life (t1/2) was determined from the gradient of the ratio of the signal of (test substance/internal standard)/unit time plot, allowing the calculation of the half-life of the test substance, assuming first order kinetics, from the decrease in the concentration of the compound with time. The microsomal clearance (mClint) was calculated as follows: mClint=((ln(2)/t 1/2)/Microsomal Protein Concentration (mg/ml))*1000, leading to the unit of uL/min/mg. The scaled clearance (mClin_scaled) was calculated as mCLint_scaled=m CLint*(Microsomal Yield (mg/kg BW))/1000000*60, leading to the units L/h/kg. The Microsomal Yield is defined by the specifics of the used microsomes. Calculations were modified from refer-ences: Di, The Society for Biomolecular Screening, 2003, 453-462; Obach, D M D, 1999 vol 27. N 11, 1350-1359.
A suspension of 0.25 mg/ml microsomal protein spiked with 0.5 μM of test compound was pipetted on one side of a HTDialysis device (HTDialysis LLC,37 Ledgewood Drive, Gales Fery Conn. 06335) separated by a membrane with a MWcut off 12-14 K. 50 mM K-Phosphate buffer (pH 7.4) was added on the other side of the well. After incubation at 37° C. for 4 h while shaking at 150 rpm, aliquots of both sides were taken, quenched with MeOH/ACN 1:1 and 0.2 μM of internal standard and frozen until analy-sis by LCMSMS.
Cl int unbound=Cl int/fu mic
The compounds were used in form of their respective acid addition salts.

In the next data set the target is T1, 5-HT2C receptor (Homo sapiens, UniProt P28335).
T1 construct: host or cells: U2OS
As to the kind of experiment: Human 5-HT2C functional assay (beta-arrestin2 recruitment, U2OS_HTR2C_β-Arrestin cells). The format is cell-based. To be noted: compounds used as acid addition salts; for EC50: U2OS_HTR2C_β-Arrestin cells, 1.5 h incubation, read-out: EC50 5-HT2C (potency in functional assay); for Emax: relative efficacy vs response to 10 µM 5-HT or maximal effect of 5-HT (100%). The protocol: The functional activity of compounds of formula I was assayed by incubation with U2OS_HTR2C_β-Arrestin cells (DiscoverX, 93-0289C3) to induce beta-arrestin2 recruitment to the 5-HT2C receptor. The agonist-induced recruitment and proximity of the receptor and beta-arrestin2 leads to complementation and formation of active β-galactosidase. The enzyme complementation results in enzyme activity, which is measured following the termination of the agonist incubation using DiscoveRx's detection reagent, which contains a chemiluminescent substrate which produces a high intensity signal. Cells were plated and a medium-change to a 1% serum containing medium was performed 24 h later. The next day, test compounds were added and incubated for 1.5 h before addition of detection reagent.
The response produced was measured and compared with the response produced by 10 [mu]M 5-HT or the maximal effect induced by 5-HT (defined as 100%) to which it was expressed as a percentage response (relative efficacy). Dose response curves were con-structed using Graphpad Prism (Graph Software Inc.) or using in house adapted software using a 4 parameter dose response model with variable slope (fit=(Bottom+(Top−Bottom)/(1+10^((LogEC50−x)*Hill Slope))res=(y−fit)). Results are compiled in the table below.
A general note: Activated receptors often draw arrestin, which recruitment assays turn into a signal.

T1 sequence (P28335 33-458): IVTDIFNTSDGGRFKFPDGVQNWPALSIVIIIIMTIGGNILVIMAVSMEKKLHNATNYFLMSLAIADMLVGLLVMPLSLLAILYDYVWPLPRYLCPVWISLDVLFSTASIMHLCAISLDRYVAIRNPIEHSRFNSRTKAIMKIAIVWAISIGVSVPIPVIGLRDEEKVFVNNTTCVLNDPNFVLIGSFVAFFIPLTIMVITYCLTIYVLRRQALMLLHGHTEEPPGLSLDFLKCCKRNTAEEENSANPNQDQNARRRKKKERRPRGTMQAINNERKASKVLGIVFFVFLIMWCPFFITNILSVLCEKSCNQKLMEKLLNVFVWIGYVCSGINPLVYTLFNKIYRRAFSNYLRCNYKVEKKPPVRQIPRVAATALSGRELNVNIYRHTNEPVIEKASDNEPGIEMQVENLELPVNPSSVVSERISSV
T1 sequence (P32121 whole entry partner): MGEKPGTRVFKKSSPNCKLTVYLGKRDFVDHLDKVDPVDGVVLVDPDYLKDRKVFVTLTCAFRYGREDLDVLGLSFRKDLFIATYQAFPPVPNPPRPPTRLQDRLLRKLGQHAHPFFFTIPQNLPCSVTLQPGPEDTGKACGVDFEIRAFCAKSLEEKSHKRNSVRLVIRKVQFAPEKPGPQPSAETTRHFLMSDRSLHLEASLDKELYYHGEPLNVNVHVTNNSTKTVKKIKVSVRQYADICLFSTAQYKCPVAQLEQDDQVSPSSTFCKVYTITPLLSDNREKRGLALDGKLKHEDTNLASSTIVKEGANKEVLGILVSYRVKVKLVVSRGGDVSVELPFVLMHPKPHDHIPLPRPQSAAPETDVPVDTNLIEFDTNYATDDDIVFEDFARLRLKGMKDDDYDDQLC

Usually EC50 stands for the concentration giving half of the maximal effect. For orientation: Emax means the greatest response seen or fitted, relative to the assay's reference. For the compound `COc1cc(OCc2ccc(F)cc2)c(F)cc1CNC(=O)[C@@H]1CCCN1` [Example 3, (2S)—N-[[5-Fluoro-4-[(4-fluorophenyl)methoxy]-2-methoxy-phenyl]methyl]-pyrrolidine-2-carboxamide], the CLint scaled at 0.5 μM in data set [1] was in the range of 80 to 250 L/h/kg. Besides, on 5-HT2C receptor, the EC50 was under 0.005 µM and the Emax is over 70%.

`COc1cc(OC2CC(F)(F)C2)c(F)cc1CNC(=O)[C@@H]1CCCN1C` [Example 37, (2S)—N-[[4-(3,3-Difluorocyclobutoxy)-5-fluoro-2-methoxy-phenyl]methyl]-1-methyl-pyrrolidine-2-carboxamide]: in data set [1], the CLint scaled at 0.5 μM was in the range of 30 to 80 L/h/kg. Further, at 5-HT2C receptor, the concentration giving a half-maximal response (EC50) fell in the range of 0.005 to 0.015 µM and the Emax is over 70%.

Consider `COc1cc(OCC(C)CC(F)(F)F)c(F)cc1CNC(=O)[C@@H]1CCCN1` (stereo partly drawn) [Example 25, (2S)—N-[[5-Fluoro-2-methoxy-4-(4,4,4-trifluoro-2-methyl-butoxy)phenyl]methyl]-pyrrolidine-2-carboxamide], for which the CLint scaled at 0.5 μM in data set [1] fell in the range of 30 to 80 L/h/kg. Besides, at 5-HT2C receptor, the EC50 is under 0.005 µM and the Emax is over 70%.

With `COc1cc(OCc2c(F)ccc(F)c2Cl)c(F)cc1CNC(=O)[C@@H]1CCCN1` [Example 7, (2S)—N-[[4-[(2-Chloro-3,6-difluoro-phenyl)methoxy]-5-fluoro-2-methoxy-phenyl]-methyl]pyrrolidine-2-carboxamide], the CLint scaled at 0.5 μM in data set [1] lay within 80 to 250 L/h/kg. Moreover, on 5-HT2C receptor, the EC50 was 0.015 to 0.03 µM and the Emax was over 70%.

Turning to `COc1cc(OCCCC(F)(F)F)c(F)cc1CNC(=O)[C@@H]1CCCN1` [Example 23, (2S)—N-[[5-Fluoro-2-methoxy-4-(4,4,4-trifluorobutoxy)phenyl]methyl]pyrrolidine-2-carboxamide], in data set [1], the CLint scaled at 0.5 μM is under 30 L/h/kg. Also, on 5-HT2C receptor, the half-maximal effective concentration (EC50) is under 0.005 µM and the Emax was over 70%.

In the case of `COc1cc(O[C@H]2CC[C@H](C(F)(F)F)CC2)c(F)cc1CNC(=O)[C@@H]1CCCN1C` [Example 39, (2S)—N-(5-Fluoro-2-methoxy-4-((trans-4-(trifluoromethyl)cyclohexyl)oxy)benzyl)-1-methyl-pyrrolidine-2-carboxamide], the CLint scaled at 0.5 μM in data set [1] lay within 30 to 80 L/h/kg. Moreover, at 5-HT2C receptor, the EC50 fell in the range of 0.015 to 0.03 µM and the Emax was over 70%.

Consider `COc1cc(OCc2ccc(C(F)(F)F)nc2)c(F)cc1CNC(=O)[C@@H]1CCCN1` [Example 10, (2S)—N-[[5-fluoro-2-methoxy-4-[[6-(trifluoromethyl)-3-pyridyl]methoxy]phenyl]-methyl]pyrrolidine-2-carboxamide], for which the CLint scaled at 0.5 μM in data set [1] fell in the range of 30 to 80 L/h/kg. Besides, at 5-HT2C receptor, the EC50 lay within 0.015 to 0.03 µM and the Emax is over 70%.

On to `COc1cc(OCCc2ccc(C(F)(F)F)cc2)c(F)cc1CNC(=O)[C@@H]1CCCN1` [Example 14, (2S)—N-[[5-Fluoro-2-methoxy-4-[2-[4-(trifluoromethyl)phenyl]ethoxy]phenyl]-methyl]pyrrolidine-2-carboxamide], for which, in data set [1], the CLint scaled at 0.5 μM is 80 to 250 L/h/kg. In addition, at 5-HT2C receptor, the EC50 lay in the range of 0.005 to 0.015 µM and the Emax was over 70%.

As for `COc1cc(O[C@H]2CC[C@H](C(F)(F)F)CC2)c(F)cc1CNC(=O)[C@@H]1CCN1` [Example 41, (2S)—N-[[5-Fluoro-2-methoxy-4-[trans 4-(trifluoromethyl)cyclohexoxy]phenyl]-methyl]azetidine-2-carboxamide], the CLint scaled at 0.5 μM in data set [1] was under 30 L/h/kg. Further, at 5-HT2C receptor, the EC50 is under 0.005 µM and the Emax fell in the range of 50 to 70%.

Consider `COc1cc(OCC(F)(F)C(F)F)c(F)cc1CNC(=O)[C@@H]1CCCN1` [Example 20, (2S)—N-[[5-Fluoro-2-methoxy-4-(2,2,3,3-tetrafluoropropoxy)phenyl]methyl]-pyrrolidine-2-carboxamide], for which the CLint scaled at 0.5 μM in data set [1] was under 30 L/h/kg. Also, on 5-HT2C receptor, the EC50 was under 0.005 µM and the Emax is over 70%.
